# Measurements: PubChem BioAssay (NCI)
# Where “and” joins values, the source holds several entries; their conditions need not be identical. Identical values can stand only once.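 These data come from cells grown in 96-well plates and exposed to compound for 48 hours at five concentrations. The concentration for 50% growth inhibition is given as GI50. The concentration for full growth arrest is given as TGI.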
# Experiments:
# Experiment in all cases: DTP human tumour cell line panel, 48 h
# [1] = test system: NCI-H460 lung
# [2] = test system: OVCAR-8 ovarian
# [3] = test system: EKVX NSCLC
# [4] = test system: SF-295 CNS
# [5] = test system: TK-10 renal
# [6] = test system: LOX IMVI melanoma
# [7] = test system: UACC-257 melanoma
# [8] = test system: A498 renal
# [9] = test system: HL-60(TB) leukemia
# [10] = test system: PC-3 prostate
SMILES,TGI [1],TGI [2],TGI [3],TGI [4],TGI [5],TGI [6],TGI [7],TGI [8],TGI [9],GI50 [9],GI50 [1],GI50 [7],GI50 [8],GI50 [3],GI50 [4],GI50 [10],TGI [10],GI50 [2],GI50 [5],GI50 [6]
COc1nc2c(c(O)c(C)c(=O)n2OC2OCC(OC(C)=O)C(OC(C)=O)C2OC(C)=O)c(=O)n1C (stereo not given),> 100 µM,> 100 µM,> 100 µM,> 100 µM,> 100 µM,> 100 µM,,,,,,,,,,,,,,
O=c1cc(O)cc2n1CCC2,> 100 µM,> 100 µM,> 100 µM,> 100 µM,> 100 µM,> 100 µM,> 100 µM,> 100 µM,,,,,,,,,,,,
COC(=O)/C=C(/C(=O)OC)C1(C)c2cc(C(=O)OC)c(C(=O)OC)c(N)c2C(=N)N1c1ccccc1 (stereo not given),> 100 µM,37.9 µM,> 100 µM,40.2 µM,> 100 µM,35 µM,,88.9 µM,32.6 µM,,,,,,,,,,,
COc1ccc2sc3c(NCCCN)nc4ccccc4c3c(=O)c2c1,3.55 µM,,3.39 µM,3.36 µM,,,3.88 µM,5.59 µM,3.63 µM,1.89 µM,1.86 µM,1.91 µM,1.52 µM,1.75 µM,1.79 µM,1.5 µM,3.05 µM,,,
O=C(NC1C(=O)NNC1c1cccc([N+](=O)[O-])c1)c1ccccc1 (stereo not given),> 100 µM,> 100 µM,> 100 µM,> 100 µM,> 100 µM,> 100 µM,> 100 µM,,> 100 µM,,,,,,,,,,,
COC(=O)C1C(=O)O[C@@H](c2ccc3c(c2)OCO3)C1C(=O)OC (mixture of isomers),> 100 µM,> 100 µM,> 100 µM,> 100 µM,> 100 µM,> 100 µM,> 100 µM,> 100 µM,> 100 µM,,,,,,,,,,,
CCN(CC)CCCNc1ccc(C)c2sc3ccccc3c(=O)c12,1.71 µM,3.26 µM,7.65 µM,2.22 µM,2.76 µM,1.58 µM,0.54 µM,,3.63 µM,1.71 µM,0.46 µM,0.23 µM,,2.16 µM,0.808 µM,0.758 µM,2.57 µM,1.41 µM,1.37 µM,0.423 µM
Cc1cccc(NC(=O)c2sc3nc4c(cc3c2N)C(=O)CCC4)c1,> 39.3 µM,> 91.9 µM,,> 47.6 µM,> 100 µM,> 70 µM,> 100 µM,0.801 µM,> 100 µM,0.393 µM,0.312 µM,,0.0656 µM,,0.194 µM,0.397 µM,> 48.1 µM,1.23 µM,> 100 µM,1 µM
CC(=O)O[C@H]1C(=O)[C@@]2(C)C([C@H](OC(=O)c3ccccc3)[C@]3(O)C[C@H](OC(=O)[C@H](O)[C@@H](NC(=O)c4ccccc4)c4ccccc4)C(C)=C1C3(C)C)[C@]1(OC(C)=O)CO[C@@H]1C[C@@H]2O (stereo not given in full),> 50 µM,> 50 µM,,> 50 µM,> 50 µM,> 50 µM,> 50 µM,> 50 µM,0.0209 µM,0.00528 µM,< 0.005 µM,> 50 µM,0.0161 µM,,0.0173 µM,0.0129 µM,> 50 µM,0.00804 µM,,0.00513 µM
CCOC(=O)c1nc(C)oc1C(F)(F)F,> 100 µM,> 100 µM,> 100 µM,> 100 µM,> 100 µM,> 100 µM,> 100 µM,> 100 µM,> 100 µM,,,,,,,,,,,
Cc1ccc2c(c1)CN1c3ccc(C)cc3CN2C1c1ccccc1O,> 100 µM,> 100 µM,54.9 µM,> 100 µM,88.1 µM,> 100 µM,,,> 100 µM,,,,,,,,,,,
O=[N+]([O-])c1ccc(Cl)c2c([N+](=O)[O-])cccc12,,> 10 µM,> 10 µM,> 10 µM,> 10 µM,> 10 µM,,,7.16 µM,,,,,,,,> 10 µM,,,
C[C@]12Cc3cn[nH]c3C(=O)C1CC[C@@H]1C2CC[C@@]2(C)C1CC[C@@H]2O (stereo not given in full),> 100 µM,> 100 µM,> 100 µM,> 100 µM,> 100 µM,> 100 µM,> 100 µM,> 100 µM,> 100 µM,,,,,,,,,,,
N#CC(C(=O)C(=O)Nc1c(Cl)cccc1Cl)c1ccccc1 (stereo not given),> 100 µM,> 100 µM,> 100 µM,,> 100 µM,,,> 100 µM,> 100 µM,> 100 µM,> 100 µM,,> 100 µM,> 100 µM,> 100 µM,,,,> 100 µM,> 100 µM
O=C(NC12CC3CCC1CC(C3)C2)[C@@H]1CCCN1C(=O)OCc1ccccc1 (stereo not given in full),,> 100 µM,> 100 µM,> 100 µM,> 100 µM,> 100 µM,> 100 µM,> 100 µM,73.3 µM,,,,,,,,,,,
O=C(Nc1cccc(-n2cc(-c3ccncc3)c(-c3cc(O)cc(Cl)c3)n2)c1)c1ccc(N2CCOCC2)c(C(F)(F)F)c1,3.48 µM,> 100 µM,,2.78 µM,,4.61 µM,8.48 µM,73.2 µM,3.04 µM,0.81 µM,0.797 µM,2.36 µM,19.4 µM,,0.614 µM,1.09 µM,45.6 µM,1.64 µM,,1.03 µM
O=C(Nc1ccc(N=C=S)cc1Cl)c1cc(Br)cc(Br)c1O,> 100 µM,46.6 µM,,> 100 µM,69.5 µM,,48.9 µM,,> 100 µM,,,,,,,,54.5 µM,,,
N#C/C(=C\c1cc(OCc2ccccc2)c(OCc2ccccc2)cn1)C(N)=O,> 100 µM,> 100 µM,> 100 µM,> 100 µM,> 100 µM,> 100 µM,> 100 µM,> 100 µM,36.9 µM,,,,,,,,,,,
O=[N+]([O-])c1ccccc1C1SCc2nc3ccccc3n21 (stereo not given),> 100 µM,> 100 µM,> 100 µM,> 100 µM,> 100 µM,> 100 µM,> 100 µM,> 100 µM,> 100 µM,,,,,,,,,,,

SMILES,TGI [1],TGI [2],TGI [3],TGI [4],TGI [5],TGI [6],TGI [7],TGI [8],TGI [9],GI50 [9],GI50 [1],GI50 [7],GI50 [8],GI50 [3],GI50 [4],GI50 [10],TGI [10],GI50 [2],GI50 [5],GI50 [6]
CCN(CC)Cc1cc(Nc2nc(NC3CCC(N(C)C)CC3)c3ccccc3n2)ccc1OC (stereo not given),17.6 µM,13.2 µM,25.5 µM,7.01 µM,25.4 µM,,3.84 µM,25.2 µM,14.9 µM,3.87 µM,5.18 µM,1.82 µM,12.5 µM,7.75 µM,2.33 µM,6.97 µM,24.3 µM,3.08 µM,12 µM,
CC1(C)OC[C@@H]([C@@]2(CO[Si](c3ccccc3)(c3ccccc3)C(C)(C)C)CC=CC(=O)O2)O1,> 100 µM,> 100 µM,37.8 µM,25.9 µM,33 µM,21 µM,9.95 µM,34.2 µM,,,5.16 µM,3.3 µM,17.1 µM,12.1 µM,5.43 µM,5.92 µM,> 100 µM,5.05 µM,11.7 µM,3.93 µM
Cc1ccc(S(=O)(=O)OCC/C(=C\[Si](C)(C)C)c2ccccc2)cc1,> 100 µM,> 100 µM,> 100 µM,> 100 µM,> 100 µM,> 100 µM,> 100 µM,> 100 µM,> 100 µM,,,,,,,,,,,
CSC1=Nc2c(c(C)c(C)n2COC(CO)CO)C2=NC(=O)CN12,> 100 µM,> 100 µM,> 100 µM,> 100 µM,> 100 µM,> 100 µM,> 100 µM,> 100 µM,,,> 100 µM,> 100 µM,> 100 µM,> 100 µM,> 100 µM,> 100 µM,> 100 µM,> 100 µM,> 100 µM,> 100 µM
NNC(=O)C(=O)N/N=C1/CCCC1C(=O)CCC(=O)Nc1ccc(Cl)cc1 (stereo not given),> 100 µM,> 100 µM,> 100 µM,> 100 µM,> 100 µM,,> 100 µM,> 100 µM,> 100 µM,,,,,,,,,,,
OCc1cc2c(cn1)[nH]c1ccc(NCc3ccccc3)cc12,80.2 µM,> 100 µM,> 100 µM,59.9 µM,85.8 µM,> 100 µM,59.9 µM,71.7 µM,31.4 µM,,,,,,,,,,,
CC1=N/C(=C\c2ccc(/C=C3/N=C(C)OC3=O)cc2)C(=O)O1,,> 100 µM,,,> 100 µM,> 100 µM,> 100 µM,> 100 µM,,,,,,,,,,,,
O=c1/c(=C/c2ccccc2[N+](=O)[O-])sc2nnc(-c3cccnc3)n12,> 100 µM,> 100 µM,> 100 µM,> 100 µM,> 100 µM,> 100 µM,> 100 µM,> 100 µM,> 100 µM,,,,,,,,,,,
O=C(NCCNCCO)c1ccc2c(c1)oc1cc3ccccc3c(=O)n12,> 50 µM,> 50 µM,> 50 µM,> 50 µM,19.6 µM,40.6 µM,> 50 µM,,> 50 µM,25.6 µM,25.4 µM,19.6 µM,,37.8 µM,> 50 µM,35.5 µM,> 50 µM,15.7 µM,1.48 µM,17.4 µM
COc1cc(Nc2cnc3ccc(C(F)(F)F)cc3n2)cc(OC)c1OC,> 100 µM,> 100 µM,> 100 µM,91.2 µM,> 100 µM,23.2 µM,> 100 µM,,> 100 µM,,,,,,,,,,,
COC(=O)CCC(NC(=S)N/N=C/c1cccs1)C(=O)OC (stereo not given),> 100 µM,> 100 µM,> 100 µM,> 100 µM,> 100 µM,> 100 µM,> 100 µM,> 100 µM,> 100 µM,,,,,,,,,,,
COc1ccc(OC)c(NCC(=O)n2nc(/C=C\c3ccc(O)c(OC)c3)cc2/C=C\c2ccc(O)c(OC)c2)c1,9.84 µM,11.9 µM,15.6 µM,6.08 µM,30.1 µM,,14.8 µM,5.7 µM,5.05 µM,0.989 µM,2.59 µM,3.28 µM,1.6 µM,3 µM,2.44 µM,2.52 µM,> 100 µM,3.02 µM,4.66 µM,
O=C1NC(=O)c2c1n(Cc1ccccc1)c(=O)n2Cc1ccccc1,> 100 µM,> 100 µM,> 100 µM,> 100 µM,> 100 µM,> 100 µM,> 100 µM,77.9 µM,> 100 µM,,,,,,,,,,,
CCn1cc(C(=O)O)c(=O)c2cc(F)c(N3CCN(S(=O)(=O)c4cccc5ccccc45)CC3)cc21,> 100 µM,> 100 µM,,,> 100 µM,,7.72 µM,> 100 µM,6.41 µM,2.58 µM,3.43 µM,2.72 µM,2.74 µM,,,2.66 µM,> 100 µM,3.09 µM,7.6 µM,
CCc1ccccc1NC(=O)c1cccc([N+](=O)[O-])c1O,71 µM,> 100 µM,> 100 µM,32.2 µM,,55.6 µM,77 µM,88.2 µM,> 100 µM,,,,,,,,,,,
Cc1nc(N)nc(CCC(=O)Nc2cccc(C(F)(F)F)c2)c1-c1ccc(Cl)cc1,> 100 µM,> 100 µM,> 100 µM,> 100 µM,> 100 µM,,> 100 µM,> 100 µM,> 100 µM,,,,,,,,,,,
O=C1NC2=C(CCCCC/C2=N\O)C12CCCCCC2,> 100 µM,> 100 µM,> 100 µM,> 100 µM,> 100 µM,> 100 µM,> 100 µM,> 100 µM,> 100 µM,,,,,,,,,,,
N#Cc1nc2c(S(=O)(=O)c3ccc(Cl)cc3)c(N)n(Nc3cccc(Cl)c3)c2nc1C#N,> 100 µM,> 100 µM,,0.276 µM,,,37.2 µM,,0.0871 µM,0.0052 µM,0.0704 µM,,,0.0693 µM and 0.0266 µM,0.0427 µM,0.00279 µM,,,0.0207 µM,0.0301 µM
COc1cc2oc(-c3ccc(O)cc3)cc(=O)c2c(O)c1C1OC(CO)C(O)C(O)C1O (stereo not given),> 100 µM,> 100 µM,> 100 µM,> 100 µM,> 100 µM,> 100 µM,> 100 µM,> 100 µM,> 100 µM,,,,,,,,,,,
